Values after ≈ are worked out from the molar mass of the structure shown. Active and inactive are the calls of the source. No cut-off for these calls is given here.
Assays:
Candida albicans [1] = assay: Antifungal activity against Candida albicans SC5314 assessed as reduction in fungal growth incubated for 48 hrs by liquid based microdilution method; type: functional
Candida albicans [2] = assay: Antifungal activity against Candida albicans 0304103 assessed as reduction in fungal growth incubated for 48 hrs by liquid based microdilution method; type: functional
Candida tropicalis = assay: Antifungal activity against Candida tropicalis 10186 assessed as reduction in fungal growth incubated for 48 hrs by liquid based microdilution method; type: functional
Nakaseomyces glabratus = assay: Antifungal activity against Candida glabrata 9073 assessed as reduction in fungal growth incubated for 48 hrs by liquid based microdilution method; type: functional
Cryptococcus neoformans [3] = assay: Antifungal activity against Cryptococcus neoformans H99 assessed as reduction in fungal growth incubated for 72 hrs by liquid based microdilution method; type: functional
Cryptococcus neoformans [4] = assay: Antifungal activity against Cryptococcus neoformans ATCC 34877 assessed as reduction in fungal growth incubated for 72 hrs by liquid based microdilution method; type: functional
[5] = Antifungal activity against Cryptococcus gattii VGI ATCC 14116 assessed as reduction in fungal growth incubated for 72 hrs by liquid based microdilution method; type: functional
Candida albicans [6] = assay: Synergistic antifungal activity against Candida albicans 0304103 assessed as inhibition of fungal growth incubated for 48 hrs in presence of (Z)-8-(hydroxyimino)-3-methylthieno[3',2':4,5]benzo[1,2-d]isoxazol-4(8H)-one by checkerboard microdilution assay; type: functional
Candida albicans [7] = assay: Synergistic antifungal activity against Candida albicans 0304103 assessed as inhibition of fungal growth incubated for 48 hrs in presence of ((Z)-8-(methoxyimino)-3-methylthieno[3',2':4,5]benzo[1,2-d]isoxazol-4(8H)-one by checkerboard microdilution assay; type: functional
Candida albicans [8] = assay: Synergistic antifungal activity against Candida albicans 0304103 assessed as inhibition of fungal growth incubated for 48 hrs in presence of (Z)-8-(ethoxyimino)-3-methylthieno[3',2':4,5]benzo[1,2-d]isoxazol-4(8H)-one by checkerboard microdilution assay; type: functional
Candida albicans [9] = assay: Synergistic antifungal activity against Candida albicans 0304103 assessed as inhibition of fungal growth incubated for 48 hrs in presence of (Z)-8-(isopropoxyimino)-3-methylthieno[3',2':4,5]benzo[1,2-d]isoxazol-4(8H)-one by checkerboard microdilution assay; type: functional
Candida albicans [10] = assay: Synergistic antifungal activity against Candida albicans 0304103 assessed as inhibition of fungal growth incubated for 48 hrs in presence of (Z)-3-ethyl-8-(methoxyimino)thieno[3',2':4,5]benzo[1,2-d]isoxazol-4(8H)-one by checkerboard microdilution assay; type: functional
Candida albicans [11] = assay: Synergistic antifungal activity against Candida albicans 0304103 assessed as inhibition of fungal growth incubated for 48 hrs in presence of (Z)-8-(methoxyimino)-3-propylthieno[3',2':4,5]benzo[1,2-d]isoxazol-4(8H)-one by checkerboard microdilution assay; type: functional
Candida albicans [12] = assay: Synergistic antifungal activity against Candida albicans 0304103 assessed as inhibition of fungal growth incubated for 48 hrs in presence of (4Z,8Z)-benzo[1,2-b:4,5-b']dithiophene-4,8-dione O,O-dimethyl dioxime by checkerboard microdilution assay; type: functional
Candida albicans [13] = assay: Synergistic antifungal activity against Candida albicans 0304103 assessed as inhibition of fungal growth incubated for 48 hrs in presence of (Z)-8-(methoxyimino)benzo[1,2-b:4,5-b']dithiophen-4(8H)-one by checkerboard microdilution assay; type: functional
Candida albicans [14] = assay: Synergistic antifungal activity against Candida albicans 0304103 assessed as inhibition of fungal growth incubated for 48 hrs in presence of (Z)-9-(hydroxyimino)-3-methylnaphtho[2,3-d]isoxazol-4(9H)-one by checkerboard microdilution assay; type: functional
Candida albicans [15] = assay: Synergistic antifungal activity against Candida albicans 0304103 assessed as inhibition of fungal growth incubated for 48 hrs in presence of (Z)-9-(methoxyimino)-3-methylnaphtho[2,3-d]isoxazol-4(9H)-one by checkerboard microdilution assay; type: functional
Candida albicans [16] = assay: Synergistic antifungal activity against Candida albicans 0304103 assessed as inhibition of fungal growth incubated for 48 hrs in presence of (Z)-9-(ethoxyimino)-3-methylnaphtho[2,3-d]isoxazol-4(9H)-one by checkerboard microdilution assay; type: functional
Candida albicans [17] = assay: Synergistic antifungal activity against Candida albicans 0304103 assessed as inhibition of fungal growth incubated for 48 hrs in presence of (Z)-8-(methoxyimino)-3-methylbenzofuro[6,5-d]isoxazol-4(8H)-one by checkerboard microdilution assay; type: functional
Cryptococcus neoformans [18] = assay: Inhibition of biofilm formation in Cryptococcus neoformans H99 at 64 ug/ml incubated for 24 hrs by microplate based analysis relative to control; type: functional
Candida albicans [19] = assay: Inhibition of biofilm formation in Candida albicans 0304103 at 2 ug/ml incubated for 32 hrs by microplate based analysis; type: functional, organism-based; details: dose 2.0 µg/ml
Candida albicans [20] = assay: Inhibition of biofilm formation in Candida albicans 0304103 at 8 ug/ml incubated for 24 hrs in presence of (Z)-8-(methoxyimino)-3-methylthieno[3',2':4,5]benzo[1,2-d]isoxazol-4(8H)-one by microplate based analysis relative to control; type: functional
Candida albicans [21] = assay: Antifungal activity against Candida albicans 0304103 assessed as downregulation of TEC1 expression at 8 ug/ml incubated for 24 hrs in presence of (Z)-8-(methoxyimino)-3-methylthieno[3',2':4,5]benzo[1,2-d]isoxazol-4(8H)-one by RT-PCR analysis; type: functional, organism-based; details: dose 8.0 µg/ml
Candida albicans [22] = assay: Antifungal activity against Candida albicans 0304103 assessed as downregulation of RLM1 expression at 8 ug/ml incubated for 24 hrs in presence of (Z)-8-(methoxyimino)-3-methylthieno[3',2':4,5]benzo[1,2-d]isoxazol-4(8H)-one by RT-PCR analysis; type: functional, organism-based; details: dose 8.0 µg/ml
Candida albicans [23] = assay: Antifungal activity against Candida albicans 0304103 assessed as downregulation of APH5 expression at 8 ug/ml incubated for 24 hrs in presence of (Z)-8-(methoxyimino)-3-methylthieno[3',2':4,5]benzo[1,2-d]isoxazol-4(8H)-one by RT-PCR analysis; type: functional, organism-based; details: dose 8.0 µg/ml
Candida albicans [24] = assay: Antifungal activity against Candida albicans 0304103 assessed as downregulation of GCA1 expression at 8 ug/ml incubated for 24 hrs in presence of (Z)-8-(methoxyimino)-3-methylthieno[3',2':4,5]benzo[1,2-d]isoxazol-4(8H)-one by RT-PCR analysis; type: functional, organism-based; details: dose 8.0 µg/ml
Candida albicans [25] = assay: Antifungal activity against Candida albicans 0304103 assessed as downregulation of GCA2 expression at 8 ug/ml incubated for 24 hrs in presence of (Z)-8-(methoxyimino)-3-methylthieno[3',2':4,5]benzo[1,2-d]isoxazol-4(8H)-one by RT-PCR analysis; type: functional, organism-based; details: dose 8.0 µg/ml
Candida albicans [26] = assay: Antifungal activity against Candida albicans 0304103 assessed as downregulation of CDR1 expression at 8 ug/ml incubated for 24 hrs in presence of (Z)-8-(methoxyimino)-3-methylthieno[3',2':4,5]benzo[1,2-d]isoxazol-4(8H)-one by RT-PCR analysis; type: functional, organism-based; details: dose 8.0 µg/ml
Candida albicans [27] = assay: Antifungal activity against Candida albicans 0304103 assessed as downregulation of ERG11 expression at 8 ug/ml incubated for 24 hrs in presence of (Z)-8-(methoxyimino)-3-methylthieno[3',2':4,5]benzo[1,2-d]isoxazol-4(8H)-one by RT-PCR analysis; type: functional, organism-based; details: dose 8.0 µg/ml
Candida albicans [28] = assay: Antifungal activity against Candida albicans 0304103 assessed as reversal of ERG11 expression by measuring fold change at 8 ug/ml incubated for 24 hrs in presence of (Z)-8-(methoxyimino)-3-methylthieno[3',2':4,5]benzo[1,2-d]isoxazol-4(8H)-one by RT-PCR analysis (reference value: 8.8); type: functional; details: dose 8 µg/ml
Candida albicans [29] = assay: In vivo antifungal activity against Candida albicans 0304103 infected in […] ICR mouse model assessed as reduction in fungal burden in kidney at 5 mg/kg, ip measured for 5 days in presence of (Z)-8-(methoxyimino)-3-methylthieno[3',2':4,5]benzo[1,2-d]isoxazol-4(8H)-one (reference value: 7.37 log10CFU/g); type: functional; details: time 5 day
Candida albicans [30] = assay: In vivo antifungal activity against Candida albicans SC5314 infected in […] ICR mouse model assessed as reduction in fungal burden in kidney at 0.5 mg/kg, ip measured for 5 days in presence of (Z)-8-(methoxyimino)-3-methylthieno[3',2':4,5]benzo[1,2-d]isoxazol-4(8H)-one; type: functional; details: time 5 day

**Q.** For `OC(Cn1cncn1)(Cn1cncn1)c1ccc(F)cc1F` [FLUCONAZOLE], which MIC80 (Candida albicans [1]) is on record?
**A.** 0.5 µg/mL (≈ 1.63 µM)

**Q.** What about the MIC80 (Candida albicans [2]) of the same molecule?
**A.** > 64 µg/mL

**Q.** And the MIC80 (Candida tropicalis)?
**A.** > 64 µg/mL

**Q.** And the MIC80 (Nakaseomyces glabratus)?
**A.** 32 µg/mL (≈ 104 µM)

**Q.** And the MIC80 (Cryptococcus neoformans [3])?
**A.** 2 µg/mL (≈ 6.53 µM)

**Q.** What about the MIC80 (Cryptococcus neoformans [4]) of the same molecule?
**A.** 1 µg/mL (≈ 3.27 µM)

**Q.** And the MIC80 [5]?
**A.** 1 µg/mL (≈ 3.27 µM)

**Q.** What about the MIC80 (Candida albicans [6]) of the same molecule?
**A.** 4 µg/mL

**Q.** What about the MIC80 (Candida albicans [7]) of the same molecule?
**A.** 1 µg/mL

**Q.** What about the MIC80 (Candida albicans [8]) of the same molecule?
**A.** 1 µg/mL

**Q.** What about the MIC80 (Candida albicans [9]) of the same molecule?
**A.** 2 µg/mL

**Q.** What about the MIC80 (Candida albicans [10]) of the same molecule?
**A.** 1 µg/mL

**Q.** What about the MIC80 (Candida albicans [11]) of the same molecule?
**A.** 8 µg/mL

**Q.** What about the MIC80 (Candida albicans [12]) of the same molecule?
**A.** > 64 µg/mL

**Q.** And the MIC80 (Candida albicans [13])?
**A.** 1 µg/mL

**Q.** And the MIC80 (Candida albicans [14])?
**A.** 2 µg/mL

**Q.** What about the MIC80 (Candida albicans [15]) of the same molecule?
**A.** 1 µg/mL

**Q.** And the MIC80 (Candida albicans [16])?
**A.** 0.5 µg/mL

**Q.** What about the MIC80 (Candida albicans [17]) of the same molecule?
**A.** 2 µg/mL

**Q.** And the inhibition at 64 µg/mL (Cryptococcus neoformans [18])?
**A.** 80%

**Q.** What about the inhibition (Candida albicans [19]) of the same molecule?
**A.** inactive

**Q.** And the inhibition at 8 µg/mL (Candida albicans [20])?
**A.** 50%

**Q.** And the Activity (Candida albicans [21])?
**A.** Active

**Q.** What about the Activity (Candida albicans [22]) of the same molecule?
**A.** Active

**Q.** What about the Activity (Candida albicans [23]) of the same molecule?
**A.** Active

**Q.** What about the Activity (Candida albicans [24]) of the same molecule?
**A.** Active

**Q.** And the Activity (Candida albicans [25])?
**A.** Active

**Q.** And the Activity (Candida albicans [26])?
**A.** Active

**Q.** And the Activity (Candida albicans [27])?
**A.** Active

**Q.** And the “fold change (FC)” value (Candida albicans [28])?
**A.** 0.8

**Q.** And the Activity (Candida albicans [29])?
**A.** 5.31 log10CFU/g

**Q.** What about the Activity (Candida albicans [30]) of the same molecule?
**A.** 5.02 log10CFU/g
